Measured values from US20240025906A1 (NEURON23, INC., priority 2022, published 2024).
Where a name gives a salt, the structure may show the parent alone. Read-outs that look alike come from different tables or passages of the source.

Tests used:
TYK2 JH2 = target: T1, TYK2 JH2 (Homo sapiens, UniProt P29597); assay: TYK2 JH2 binding assay (KINOMEscan KdELECT competitive binding); settings: TYK2 JH2 domain
T1 construct: purchased DiscoverX (KINOMEscan KdELECT service); host or cells: E. coli BL21-derived (T7 phage display) or HEK-293
T1 sequence (P29597 589-875 limits assumed): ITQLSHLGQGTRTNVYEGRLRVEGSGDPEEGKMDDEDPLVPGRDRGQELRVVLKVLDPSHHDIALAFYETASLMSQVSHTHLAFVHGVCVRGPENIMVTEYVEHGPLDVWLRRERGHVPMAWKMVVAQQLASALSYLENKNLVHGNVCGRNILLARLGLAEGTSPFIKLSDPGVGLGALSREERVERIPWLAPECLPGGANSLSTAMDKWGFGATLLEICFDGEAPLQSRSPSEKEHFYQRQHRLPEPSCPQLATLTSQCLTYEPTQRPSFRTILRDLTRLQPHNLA
How it was run: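 JH2-domain fragment, expressed as T7 phage tag in BL21-derived E. coli or DNA-tagged from HEK-293, competed with test compound against bead-immobilized biotinylated ligand in binding buffer (0.9% DMSO). 1 h shaking at room temperature; bound kinase eluted with 0.5 μM free ligand and quantified by qPCR. Kd from 11-point 3-fold dilutions.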

[1] = test system: JAK1/TYK2 pSTAT5 (Tyr694/699) in THP-1 cell line; assay: IFNa-stimulated JAK1/TYK2 pSTAT5 (Tyr694/699) inhibition cellular assay, AlphaLISA; assay type: cell-based; settings: THP-1 cells, AlphaLISA (Assay B)
How it was run: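 THP-1 cells (2e4/well in HBSS) were preincubated with compound (8 points, 6-fold steps from 10000 nM final) for 1 h at 37 °C, then stimulated with IFNa (added at 100 ng/mL) for 30 min. Lysate pSTAT5 was read by AlphaLISA at 615 nm. IC50 came from a 4-parameter fit with bottom 0 and Hill −1.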

[2] = KINOMEscan KdELECT (Assay A), read-out: Biochemical TYK2_DiscoverX_JH2_BND_Kd
[3] = Homo sapiens, IFNa-stimulated, read-out: Cellular_THP1_IFNa-pSTATS_TYK2
[4] = DiscoverX KINOMEscan KdELECT (Assay A), read-out: Biochemical TYK2_DiscoverX_JH2_BND_Kd
[5] = KINOMEscan KdELECT (Assay A), read-out: Biochemical TYK2_JH2_Kd
[6] = Homo sapiens, IFNa-stimulated, read-out: Cellular THP1_IFNa-pSTATS_IC50

Compound | Kd (TYK2 JH2; [2]) | IC50 [1, 3] | Kd (TYK2 JH2; [4]) | other results
CNc1ncc(-c2ccc(Oc3cncs3)cc2)c2cc(NC(=O)C3CC3)ncc12 [Example 857, N-(8-(methylamino)-5-(4-(thiazol-5-yloxy)phenyl)-2,7-naphthyridin-3-yl)cyclopropanecarboxamide] | ≤ 100 nM | ≤ 500 nM | – | –
[2H]C([2H])([2H])Nc1ncc(-c2nc3cc(N4CCOCC4)ccc3o2)c2cc(NC(=O)[C@H]3C[C@H]3C)ncc12 [Example 443, (1S,2R)-2-methyl-N-(8-((methyl-d3)amino)-5-(5-morpholinobenzo[d]oxazol-2-yl)-2,7-naphthyridin-3-yl)cyclopropane-1-carboxamide] | – | ≤ 500 nM | ≤ 100 nM | –
CNc1ncc(-c2nc3cc(N4CCC4COC)ccc3o2)c2cc(NC(=O)C3CC3)ncc12 (centres unmarked) [Example 278, N-(5-(5-(2-(methoxymethyl)azetidin-1-yl)benzo[d]oxazol-2-y1)-8-(methylamino)-2,7-naphthyridin-3-yl)cyclopropanecarboxamide] | – | ≤ 500 nM | ≤ 100 nM | –
CNc1ncc(-c2ccccc2)c2cc(NCC3CC3)ncc12 [Example 93, N^6-(cyclopropylmethyl)-N^1-methyl-4-phenyl-2,7-naphthyridine-1,6-diamine] | – | – | – | Kd (TYK2 JH2; [5]): 1000 to 10000 nM; IC50 [1, 6]: > 500 nM
CNc1ncc(C#Cc2cc(C)c(OC)cn2)c2cc(NC(=O)C3CC3)ncc12 [Example 663, N-(5-((5-methoxy-4-methylpyridin-2-yl)ethynyl)-8-(methylamino)-2,7-naphthyridin-3-yl)cyclopropanecarboxamide] | ≤ 100 nM | ≤ 500 nM | – | –
CNc1ncc(C(=O)O)c2cc(NC(=O)C3CC3)ncc12 [Example 120, 6-(cyclopropanecarboxamido)-1-(methylamino)-2,7-naphthyridine-4-carboxylic acid] | – | – | – | Kd (TYK2 JH2; [5]): 100 to 1000 nM; IC50 [1, 6]: > 500 nM
CNc1ncc(-c2nc3ccc(N4CCO[C@@H](CO)C4)cn3n2)c2cc(NC(=O)C3CC3)ncc12 [Example 1030] | ≤ 100 nM | – | – | IC50 ([1]; Homo sapiens, IFNa-stimulated pSTAT5 (Tyr694/699), read-out: Cellular_THP1_IFNa-pSTATS_TYK2): ≤ 500 nM
[2H]C([2H])([2H])Nc1ncc(-c2nc3ccc(OC)cn3n2)c2cc(NC(=O)[C@H]3C[C@H]3F)ncc12 [Example 568, (1R,2R)-2-fluoro-N-(5-(6-methoxy-[1,2,4]triazolo[1,5-a]pyridin-2-yl)-8-((methyl-d3)amino)-2,7-naphthyridin-3-yl)cyclopropane-1-carboxamide] | – | ≤ 500 nM | ≤ 100 nM | –
CNc1ncc(-c2ncccc2OC)c2cc(Nc3ccccn3)ncc12 [Example 91, 4-(3-methoxypyridin-2-yl)-N^1-methyl-N^6-(pyridin-2-yl)-2,7-naphthyridine-1,6-diamine] | – | – | – | Kd (TYK2 JH2; [5]): 100 to 1000 nM; IC50 [1, 6]: > 500 nM
CNc1ncc(-c2ccn[nH]2)c2cc(NC(=O)C3CC3)ncc12 [Example 52, N-(8-(methylamino)-5-(1H-pyrazol-5-yl)-2,7-naphthyridin-3-yl)cyclopropanecarboxamide] | – | – | – | Kd (TYK2 JH2; [5]): ≤ 100 nM; IC50 [1, 6]: > 500 nM
CNc1ncc(-c2nc3cc(OC)ccc3o2)c2cc(NC(=O)[C@H]3C[C@@H]3C(C)(C)O)ncc12 (racemic) [Example 406, 2-(2-hydroxypropan-2-yl)-N-(5-(5-methoxybenzo[d]oxazol-2-yl)-8-(methylamino)-2,7-naphthyridin-3-yl)cyclopropane-1-carboxamide] | – | ≤ 500 nM | ≤ 100 nM | –
[2H]C([2H])([2H])Nc1ncc(-c2nc3ccccn3n2)c2cc(NC(=O)[C@@H]3C[C@@H]3F)ncc12 [Example 567, (1S,2S)—N-(5-([1,2,4]triazolo[1,5-a]pyridin-2-yl)-8-((methyl-d3)amino)-2,7-naphthyridin-3-yl)-2-fluorocyclopropane-1-carboxamide] | – | ≤ 500 nM | ≤ 100 nM | –
CNc1ncc(C#Cc2ccc(OC[C@@H](C)OC)cc2)c2cc(NC(=O)C3CC3)ncc12 [Example 703, (R)—N-(5-((4-(2-methoxypropoxy)phenyl)ethynyl)-8-(methylamino)-2,7-naphthyridin-3-yl)cyclopropanecarboxamide] | ≤ 100 nM | ≤ 500 nM | – | –
CNc1ncc(-c2cc(C)ns2)c2cc(NC(=O)C3CC3)ncc12 [Example 138, N-(8-(methylamino)-5-(3-methylisothiazol-5-yl)-2,7-naphthyridin-3-yl)cyclopropanecarboxamide] | – | – | – | Kd (TYK2 JH2; [5]): ≤ 100 nM; IC50 [1, 6]: > 500 nM
CNc1ncc(-c2ccc(OCC(F)(F)F)cc2)c2cc(NC(=O)C3CC3)ncc12 [Example 111, N-(8-(methylamino)-5-(4-(2,2,2-trifluoroethoxy)phenyl)-2,7-naphthyridin-3-yl)cyclopropanecarboxamide] | – | – | – | Kd (TYK2 JH2; [5]): ≤ 100 nM; IC50 [1, 6]: > 500 nM
[2H]C([2H])([2H])Nc1ncc(-c2nc3cc(OC)ccc3o2)c2cc(NC(=O)[C@H]3C[C@H]3C)ncc12 (single isomer, unassigned) [Example 438] | – | – | ≤ 100 nM | IC50 ([1]; IFNa-stimulated, read-out: Cellular_THP1_IFNa-pSTATS_TYK2): ≤ 500 nM
[2H]C([2H])([2H])Oc1ccc(C#Cc2cnc(NC)c3cnc(NC(=O)C4CC4)cc23)nc1 [Example 722, N-(5-((5-(methoxy-d3)pyridin-2-yl)ethynyl)-8-(methylamino)-2,7-naphthyridin-3-yl)cyclopropanecarboxamide] | ≤ 100 nM | ≤ 500 nM | – | –
CNc1ncc(C#Cc2ccc(N3CC4CN(C)CC(C3)O4)cn2)c2cc(NC(=O)C3CC3)ncc12 [Example 733, N-(5-((5-(7-methyl-9-oxa-3,7-diazabicyclo[3.3.1]nonan-3-yl)pyridin-2-yl)ethynyl)-8-(methylamino)-2,7-naphthyridin-3-yl)cyclopropanecarboxamide] | ≤ 100 nM | ≤ 500 nM | – | –

Now from value to compound, other results behind:

Kd (TYK2 JH2; [2]) | IC50 [1, 3] | Kd (TYK2 JH2; [4]) | Compound | other results
≤ 100 nM | ≤ 500 nM | – | CNc1ncc(C#Cc2ccc3ocnc3c2)c2cc(NC(=O)C3CC3)ncc12 [Example 622, N-(5-(benzo[d]oxazol-5-ylethynyl)-8-(methylamino)-2,7-naphthyridin-3-yl)cyclopropanecarboxamide] | –
– | ≤ 500 nM | ≤ 100 nM | CNc1ncc(-c2nc3cc(N4CCCS4(=O)=O)ccc3o2)c2cc(NC(=O)C3CC3)ncc12 [Example 328, N-(5-(5-(1,1-dioxidoisothiazolidin-2-yl)benzo[d]oxazol-2-yl)-8-(methylamino)-2,7-naphthyridin-3-yl)cyclopropanecarboxamide] | –
– | ≤ 500 nM | ≤ 100 nM | CNc1ncc(-c2nc3cc(OCCN4CCOCC4)ccc3o2)c2cc(NC(=O)C3CC3)ncc12 [Example 235, N-(8-(methylamino)-5-(5-(2-morpholinoethoxy)benzo[d]oxazol-2-yl)-2,7-naphthyridin-3-yl)cyclopropanecarboxamide] | –
– | ≤ 500 nM | ≤ 100 nM | CNc1ncc(-c2nc3ccc(N4CCOCC4)cn3n2)c2cc(NC(=O)[C@@H]3CC34CC4)ncc12 (single isomer, unassigned) [Example 587, formate] | –
≤ 100 nM | ≤ 500 nM | – | CNc1ncc(C#Cc2ccc(OC)cn2)c2cc(NC(=O)C3CC3C(F)F)ncc12 [Example 744, (1R,18)-2-(difluoromethyl)-N-(5-((5-methoxypyridin-2-yl)ethynyl)-8-(methylamino)-2,7-naphthyridin-3-yl)cyclopropane-1-carboxamide] | –
– | ≤ 500 nM | ≤ 100 nM | CNc1ncc(-c2nc3cc(N4CC5(COC5)C4)ccc3o2)c2cc(NC(=O)C3CC3)ncc12 [Example 296, N-(5-(5-(2-oxa-6-azaspiro[3.3]heptan-6-yl)benzo[d]oxazol-2-y1)-8-(methylamino)-2,7-naphthyridin-3-yl)cyclopropanecarboxamide] | –
– | ≤ 500 nM | ≤ 100 nM | CNc1ncc(-c2nc3cc(OC)ccc3o2)c2cc(NC(=O)[C@@H]3C[C@@H]3C)ncc12 (racemic) [Example 383, N-(5-(5-methoxybenzo[d]oxazol-2-yl)-8-(methylamino)-2,7-naphthyridin-3-y1)-2-methylcyclopropane-1-carboxamide] | –
– | ≤ 500 nM | ≤ 100 nM | CNc1ncc(-c2nc3cc(N4CC[C@H]4C(N)=O)ccc3o2)c2cc(NC(=O)C3CC3)ncc12 [Example 321, (S)-1-(2-(6-(cyclopropanecarboxamido)-1-(methylamino)-2,7-naphthyridin-4-yl)benzo[d]oxazol-5-yl)azetidine-2-carboxamide] | –
≤ 100 nM | – | – | CNc1ncc(-c2nc3ccc(N4CCOC(C(C)(C)F)C4)cn3n2)c2cc(NC(=O)C3CC3)ncc12 (single isomer, unassigned) [Example 1050] | IC50 ([1]; IFNa-stimulated pSTAT5 (Tyr694/699), read-out: Cellular_THP1_IFNa-pSTATS_TYK2): ≤ 500 nM
– | ≤ 500 nM | ≤ 100 nM | [2H]C([2H])([2H])Nc1ncc(-c2nc3cc(OC([2H])([2H])[2H])ccc3o2)c2cc(NC(=O)C3CC3)ncc12 [Example 365, N-(5-(5-(methoxy-d3)benzo[d]oxazol-2-yl)-8-((methyl-d3)amino)-2,7-naphthyridin-3-yl)cyclopropanecarboxamide] | –
